Measured values published in US12187749B2, “Application of dipyrrinato-iridium complexes in anti-tumor and anti-bacterial therapy” (BIOLITEC UNTERGEHMENSBETEILIGUNGS II AG, priority 2020, dated 2025).

Assays:
[1] = tested on: Staphylococcus aureus DSM 1104; assay: Antibacterial testing (CFU/ml count) against S. aureus; type: cell-based; conditions: photosensitizer 100, 10 and 1 μM; for antibacterial activity against S. aureus in the absence of light: absence of light (dark toxicity control), 30 min incubation
Procedure: The organisms studied were Staphylococcus aureus DSM 1104, Gram-positive and Pseudomonas aeruginosa DSM 1117, Gram-negative. Cultures cells are suspended in sterile phosphate-buffered saline (PBS) or sterile PBS supplemented with 10% sterile horse blood serum. The bacterial suspensions are placed into sterile black well plates with clear bottoms. Concentrations of photosensitizer used in the study were as follows: 100 μM, 10 μM and 1 μM. After an incubation time period of 30 minutes, the samples are exposed to white light, with a power density and irradiation time resulting in an energy fluency of about 100 J/cm^2. Control plates contained no photosensitizer and are not exposed to laser light. The control samples for dark toxicity are only exposed to photosensitizer without any illumination. After irradiation, the samples are removed and suspended again in the culture media. The numbers of colony-forming units (CFU/ml) are enumerated after an adequate incubation time period.

[2] = tested on: HT 29 and other cell lines; assay: Cell tests (XTT cell viability), dark toxicity, in HT 29 and other cell lines; type: cell-based; conditions: 2 or 10 μM photosensitizer, 24 h incubation, XTT assay
Procedure: The photosensitizing activity was determined in the following cell lines: • HT29 (human colon adenocarcinoma cell line) • L929 (mouse fibroblast cell line) • A431 (human epidermoid carcinoma cell line) • A253 (submaxillary salivary gland, epidermoid cell line) • CAL-27 (human tongue squamous cell carcinoma cell line) • J774A.1 (Mouse BALB/c monocyte macrophage).
The cell lines were grown in DMEM (c.c.pro GmbH) supplemented with 10% heat-inactivated fetal calf serum (FCS, c.c.pro GmbH), 1% penicillin (10000 IU) and streptomycin (10000 μg/ml, c.c.pro GmbH). Cells were kept as a monolayer culture in a humidified incubator (5% CO2 in air at 37° C.). A photosensitizer stock solution (2 mM) was performed in DMSO and was kept in the dark at 4° C. Further dilution was performed in DMEM medium without phenol red supplemented with 10% FCS to reach a final photosensitizer concentration of 2 or 10 μM, respectively. After seeding the cells in micro plates, the cells were incubated with fresh medium (DMEM without phenol red) containing 10% FCS with 2 or 10 μM of the photosensitizer for 24 h before light exposure. Before photosensitization, cells were washed, cell culture medium was exchanged with DMEM without phenol red and 10% FCS, then irradiated at room temperature with white light source at a fixed fluence rate of about 100 mW/cm^2 (50 J/cm^2). Following irradiation, cells were incubated in a humidified incubator (5% CO2 in air at 37° C.) for 24 h until cell viability assay. The cell viability was assessed by the XTT assay. 500 mg XTT (sodium 3′-[phenyl-aminocarbonyl)-3,4-tetrazolium]-bis(4-methoxy-6-nitro)benzene sulfonic acid, Applichem GmbH) is dissolved in 500 ml PBS-Buffer (without Ca^2+ and Mg^2) and sterile filtered. Solution was stored in the dark at −20° C. until use. A sterile solution containing PMS (N-methyl dibenzopyrazine methyl sulfate, Applichem GmbH) was needed as an activation reagent for the XTT. 0.383 mg PMS was dissolved in 1 ml PBS-Buffer. […] The absorbance of the samples was measured with a microplate reader (Infinite 200, Tecan Group Ltd.) at a wavelength of 490 nm.

Row | Substance | antibacterial activity in the presence of complex media (serum addition) ([1]; PBS supplemented with 10% sterile horse blood serum) | antibacterial activity against S. aureus in the absence of light [1] | toxicity to cells in the absence of light (dark toxicity) [2]
1 | Bis(2-phenylpyridyl){5-[2,3,5,6-tetrafluoro-4-(1′-thio-β-D-galactosyl)phenyl]-dipyrrinato}iridium(III) [Example 3.4] | antibacterial activity is also observed | high antibacterial activity | –
2 | Bis(2-phenylpyridyl){5-[2,3,5,6-tetrafluoro-4-(1′-thio-β-D-glucosyl)phenyl]-dipyrrinato}iridium(III) [Example 3.3] | – | high antibacterial activity | –
3 | Chlorido{5-[4-(N,N-dibutylamino)-3-nitrophenyl]dipyrrinato}(pentamethyl-cyclopentadienyl)iridium(III) [Example 1.6] | – | – | non-toxic
4 | [5-(4-Butyloxy-2,3,5,6-tetrafluorophenyl)dipyrrinato]chlorido-(pentamethylcyclopentadienyl)iridium(III) [Example 1.3] | – | – | non-toxic
5 | {5-[4-(N-2-Hydroxyethylamino)-2,3,5,6-tetrafluorophenyl]dipyrrinato}bis(2-phenyl-pyridyl)iridium(III) [Example 2.1] | – | high antibacterial activity | –
6 | {5-[4-(N-Butylamino)-2,3,5,6-tetrafluorophenyl]dipyrrinato}chlorido-(pentamethylcyclopentadienyl)iridium(III) [Example 1.2] | – | – | non-toxic
